Laboratory results published in US10494333B2, “Compound having BLT inhibitory activity and composition, for preventing or treating inflammatory diseases, comprising same as active ingredient” (DONGGUK UNIVERSITY INDUSTRY-ACADEMIC COOPERATION FOUNDATION, priority 2015, dated 2019).

Legend:
BLT1 = biological target: T1, BLT1 (Homo sapiens, UniProt Q15722); experiment: LTB4-induced chemotactic motility of BLT1-expressing cells (Transwell); format: cell-based; conditions: CHO-BLT1 cells, LTB4 10 nM
T1 construct: expressed in transfected cells; host or cells: CHO cells (CHO-BLT1)
Description: (§1) Chemotactic motility was analyzed using a Transwell chamber including a polycarbonate filter (8-μm pore size, Corning Costar) with a 6.5-mm diameter. Specifically, the lower surface of the filter was coated with 10 μg/mL fibronectin in a serum-free RPMI 1640 medium at 37° C. for 1 hour. The experiment was performed by placing the filter dried and coated with RPMI 1640 media containing various amounts of LTB4 in the lower wells of the Transwell chamber, and loading CHO cells, which stably express both BLT1 and BLT2, into the upper wells containing serum-free RPMI 1640 media finally at 2×10^4 cells/100 μL. To evaluate the effect of inhibitors, the cells were pre-treated with each inhibitor for 30 minutes before dispensing. After the cells were cultured at 37° C. in 5% CO2 for 3 hours, the filters were fixed with methanol for 3 minutes, and stained with hematoxylin and eosin for 10 minutes. […] The chemotactic motility was quantitatively analyzed by counting the cells on the lower side of the filter under an optical microscope (magnification, 200×). For each analysis, 6 fields were subjected to counting, each sample was analyzed twice, and the analysis was repeated three times.

BLT2 [1] = biological target: T2, BLT2 (Homo sapiens, UniProt Q9NPC1); experiment: LTB4-induced BLT2-dependent chemotactic motility (Transwell); format: cell-based; design: expressed in transfected cells; conditions: CHO-BLT2 cells, LTB4 300 nM
T2 sequence (Q9NPC1 with tags, fused parts or gaps): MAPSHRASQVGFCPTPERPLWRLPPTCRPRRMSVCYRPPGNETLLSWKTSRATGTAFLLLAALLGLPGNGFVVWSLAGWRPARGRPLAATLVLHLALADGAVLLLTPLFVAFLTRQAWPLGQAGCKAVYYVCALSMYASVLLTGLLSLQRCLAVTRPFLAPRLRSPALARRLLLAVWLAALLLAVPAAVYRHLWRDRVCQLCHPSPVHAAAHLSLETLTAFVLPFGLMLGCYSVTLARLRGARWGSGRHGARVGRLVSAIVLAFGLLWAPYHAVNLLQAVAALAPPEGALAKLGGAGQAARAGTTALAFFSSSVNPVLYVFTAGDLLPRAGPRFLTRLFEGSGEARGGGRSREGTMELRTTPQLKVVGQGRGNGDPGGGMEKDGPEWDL
Description: (§2) In addition, in order to prepare stable CHO/BLT2 clones, CHO-K1 cells were transformed with pcDNA3-long form BLT2 encoding HA-tagged human BLT2, and selected with 0.4 mg/ml of G418 (Invitrogen, Carlsbad, Calif., USA).
as §1

[2] = tested on: ovarian cancer cells (SKOV-3 cells); experiment: Death of anticancer agent-resistant ovarian cancer cells on co-treatment with cisplatin (MTT); format: cell-based; conditions: 10 μM pre-treated 30 minutes, cisplatin 50 μM, 24 hours, LY255283 compared to cisplatin alone, AC compounds compared with LY255283 co-treatment
Description: The death of cancer cells was detected using a 3-(4,5-dimethylthiazol-2-yl)-2,5-diphenyltetrazolium bromide (MTT) method. More specifically, 1×10^5 of the ovarian cancer cells (SKOV-3 cells) resistant to the anti-cancer agents were dispensed on a 12-well culture dish, and cultured for 24 hours. A 0.5% serum RPMI medium was pre-treated with each of the compound prepared in one of the examples (10 μM), 10 μM of DMSO (compound solvent) as a control, and 10 μM of LY255283 as a positive control for 30 minutes. Afterward, 50 μM of an anti-cancer agent, cisplatin, was treated, and then the cells were cultured 24 hours. A 20 μL of an MTT solution (5 mg/mL, Sigma-Aldrich) was added to each well, and the cells were cultured in a humid CO2 incubator at 37° C. for 4 hours. Afterward, the supernatant was removed, and 500 µL of DMSO was added to each well to dissolve insoluble violet formazan crystals. Absorbance was measured using a microplate reader (Molecular Devices, Sunnyvale, Calif.) at 550 nm, and the measurement was repeated three times.

[3] = tested on: BLT2-expressing cells (CHO-BLT2 cells); experiment: LPA-induced chemotactic motility of CHO-BLT2 cells (Transwell); format: cell-based; conditions: LPA 100 nM
Description: Chemotactic motility was analyzed using a Transwell chamber including a polycarbonate filter (8-μm pore size, Corning Costar) with a 6.5-mm diameter. […] To evaluate the effect of inhibitors, the cells were pre-treated with each inhibitor for 30 minutes before dispensing. After the cells were cultured at 37° C. in 5% CO2 for 3 hours, the filters were fixed with methanol for 3 minutes, and stained with hematoxylin and eosin for 10 minutes. […] The chemotactic motility was quantitatively analyzed by counting the cells on the lower side of the filter under an optical microscope (magnification, 200×). For each analysis, 6 fields were subjected to counting, each sample was analyzed twice, and the analysis was repeated three times.

[4] = tested on: BLT2-expressing cells (CHO-BLT2 cells); experiment: Inhibition of LTB4-induced growth of BLT2-expressing cells (MTT); format: cell-based, human; conditions: LTB4 300 nM, 24 hours
Description: Cell viability according to treatment of the compounds prepared in the examples were measured by a 3-(4,5-dimethylthiazol-2-yl)-2,5-diphenyltetrazolium bromide (MTT) method.
More specifically, 1×10^4 each of the BLT2-nonexpressing cells (CHO-pcDNA3.1 cells) and BLT2-expressing cells (CHO-BLT2 cells), which were prepared in Experimental Example 1, were dispensed in a […], and cultured for 24 hours. Afterward, the culture medium was removed, a serum-free RPMI medium was added, and after two hours, the cells were pre-treated with each of the compound prepared in one of the examples (10 μM), 10 μM DMSO (compound solvent) as a control, and 10 μM of 1-[5-ethyl-2-hydroxy-4-[[6-methyl-6-(1H-tetrazol-5-yl)heptyl]oxy]phenyl]-ethanone (LY255283; Cayman) as a positive control for 1 hour. Subsequently, after treatment of LTB4 (300 nM), the cells were cultured for 24 hours. 20 μL of an MTT solution (5 mg/mL, Sigma-Aldrich) was added to each well, the cells were cultured in a humid CO2 incubator at 37° C. for 4 hours, and then the supernatant was removed, and 200 μL of DMSO was added to each well to dissolve insoluble violet formazan crystals. Absorbance was measured using a microplate reader (Molecular Devices, Sunnyvale, Calif.) at 550 nm, and the measurement was repeated three times.

asthma-induced mice = experiment: Airway hyperresponsiveness (AHR) in OVA asthma-induced mice; format: in vivo
Description: (§3) Mast cells play a pivotal role in the initial reaction to asthma, and when an allergen enters the body from the outside through an airway, the mast cells are activated, thereby secreting various cytokines (interleukin-4 and interleukin-13). Due to the cytokines, the influx of inflammatory cells, and the generation of mucus and the airway contraction occur. The inventors used 7-week-old (18 to 20 g) female BALB/c mice provided by Orient (Seoungnam, Korea) for the experiment to confirm the anti-asthma effect, and asthma was induced in the mice. On day 1 and day 14, 2.5 mg of an adjuvant aluminum hydroxide gel (alum; Pierce, Rockford, Ill.) containing a […] of ovalbumin (OVA) was injected intraperitoneally to sensitize the female […] mice. After the two initial sensitizations, on day 21, day 22 and day 23, 1% OVA was sprayed into the mice using an ultrasonic nebulizer. […] After the initial sensitizations, on day 24, AHR was detected, and on day 25, the mice were dissected to observe asthma phenotypes such as the expression of an inflammatory cytokine IL-4, and the influx of the inflammatory cells (neutrophils). In addition, the AHR detection was performed after an airway constrictor methacholine (6.25 to 50 mg/ml depending on conditions) was administered to the mice. The administration of the airway constrictor was performed by spraying through an inlet of the chamber using an ultrasonic nebulizer for 3 minutes. The AHR was analyzed using an enhanced pause as the indicator of the asthma phenomenon.

interleukin-4 (IL-4) = experiment: IL-4 production in severely asthma-induced mice; format: in vivo; conditions: severely asthma-induced mice (FIG. 8), cells separated from the abdominal cavity, pre-treated (method 5 mg/kg intraperitoneally)
Description: as §3, with “The administration of the airway constrictor was performed by spraying through an inlet of the chamber using an ultrasonic nebulizer for 3 minutes.” left out

BLT2 [5] = biological target: T2, BLT2; experiment: biochemical
Description: as §2

[6] = severely asthma-induced mice (FIG. 7), airway constrictor 50 mg/ml, pre-treated (method 5 mg/kg intraperitoneally)

T1 sequence (Q15722 whole entry, species assumed): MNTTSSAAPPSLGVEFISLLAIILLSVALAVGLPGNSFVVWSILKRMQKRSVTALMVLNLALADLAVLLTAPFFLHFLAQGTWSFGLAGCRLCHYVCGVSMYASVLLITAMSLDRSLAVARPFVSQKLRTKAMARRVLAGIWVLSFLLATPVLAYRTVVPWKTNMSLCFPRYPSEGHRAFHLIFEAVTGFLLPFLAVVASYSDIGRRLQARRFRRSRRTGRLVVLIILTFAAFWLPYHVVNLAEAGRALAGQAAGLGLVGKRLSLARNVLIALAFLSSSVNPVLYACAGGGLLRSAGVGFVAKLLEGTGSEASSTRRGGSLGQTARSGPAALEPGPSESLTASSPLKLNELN

`CCCCC/C=C\C[C@@H](O)/C=C/C=C/C=C\[C@@H](O)CCCC(=O)O` [LTB4, leukotriene B4, reference compound] was tested, and the “chemotactic motility increase compared with ethanol (DMSO−)” value (shortened to “chemotactic motility increase”) (BLT1) was 2.8 times and the “chemotactic motility increase” value (BLT2 [1]) was 2.9 times.

For `CCCCC(=O)N(Cc1ccc(-c2ccc(O)cc2)cc1)c1cccc(F)c1` [AC-1070, N-(3-fluorophenyl)-N-((4′-hydroxybiphenyl-4-yl)methyl)pentaneamide], the “death of cancer cells on co-treatment with cisplatin” value (shortened to “death of cancer cells”) [2] was “highly increase”.

For “lysophosphatidic acid [LPA, reference compound]”, the “chemotactic motility increase” value [3] was 3.4 times.

With `CCCCC(=O)N(Cc1ccc(-c2ccc(C(=O)O)cc2)cc1)c1ccc(F)cc1` [AC-1072, 4′-((N-(4-fluorophenyl)pentaneamido)methyl)biphenyl-4-carboxylic acid] the “death of cancer cells” value [2] was “highly increase”.

In the case of `CCc1cc(C(C)=O)c(O)cc1OCCCCCC(C)(C)c1nnn[nH]1` [LY255283, 1-[5-ethyl-2-hydroxy-4-[[6-methyl-6-(1H-tetrazol-5-yl)heptyl]oxy]phenyl]-ethanone, reference compound], the “cell growth compared with control DMSO” value ([4]; pre-treated with 10 μM) is reported as “approximately 90%”, the “death of cancer cells” value [2] is reported as “increased” and the AHR reduced (asthma-induced mice; [6]) is reported as 69.2%. The “production of IL-4 reduced” value (interleukin-4 (IL-4)) was 67.2% and the “chemotactic motility compared with those treated with the ligand LTB4” value (BLT2 [1]; 10 μM pre-treatment) was 90%.

For `CCCCC(=O)N(Cc1ccc(-c2ccc(OCC(=O)O)cc2)cc1)c1ccccc1` [AC-1073, 2-(4′-((N-phenylpentaneamido)methyl)biphenyl-4-yloxy)acetic acid], the “death of cancer cells” value [2] was “highly increase”.

In the case of `CCCCC(=O)N(Cc1ccc(-c2ccc(OC)cc2)cc1)c1cccc(F)c1` [AC-1646, N-(3-fluorophenyl)-N-((4′-methoxybiphenyl-4-yl)methyl) pentaneamide], the growth inhibitory effect ([4]; compound 10 μM pre-treated 1 hour) is reported as 72.1%.

In the case of `CCCCC(=O)N(Cc1ccc(-c2ccc(OCC(=O)O)cc2)cc1)c1cccc(F)c1` [AC-1074, 2-(4′-((N-(3-fluorophenyl)pentaneamido)methyl)biphenyl-4-yloxy)acetic acid], the “death of cancer cells” value [2] is reported as “highly increase”, the “change in chemotactic motility compared with LTB4 (DMSO+)” value (BLT1; 10 μM pre-treatment) is reported as “no change” and the “change in chemotactic motility compared with LPA (DMSO+)” value ([3]; 10 μM pre-treatment) is reported as “no change”. It also gave an IC50 (BLT2 [5]) of 140 nM, an AHR reduced (asthma-induced mice; asthma-induced mice (FIG. 6), airway constrictor methacholine 50 mg/ml, pre-treated (printed 10 μM; method 5 mg/kg intraperitoneally)) of 42% and an AHR reduced (asthma-induced mice; [6]) of 59%. For the same compound, the “production of IL-4 reduced” value (interleukin-4 (IL-4)) was 35.5%.
